For one data set, the system named is HCMV strain AD-169. Nature of the data set: Plaque reduction assay for antiviral activity, HCMV in HFF cells. Conditions: read-out: HCMV EC50. In kind it is cell-based.
Data set [1] has as its system human foreskin fibroblast (HFF) cells.
The subject of a further data set is MCMV strain Smith. As to the kind of experiment: Plaque reduction assay for antiviral activity, MCMV in MEF cells. In kind it is cell-based. Conditions: read-out: MCMV EC50. For orientation: Plaque reduction counts the foci of infection that form in a cell layer.
Another data set deals with Cowpox Brighton. Nature of the data set: microbe, parasite or virus in culture. In kind it is cell-based, cowpox virus (CV). Particulars: read-out: Cowpox Brighton EC50.
The next data set relates to Vaccinia Copenhagen. Nature of the data set: microbe, parasite or virus in culture. In kind it is cell-based, vaccinia virus (VV). Conditions: read-out: Vaccinia Copenhagen EC50.
The nature of the next data set: in vitro. Conditions: human.
[2] abbreviates: HFF cells, 8-day incubation, value without SD = single determination.

Where a name gives a salt, the structure may show the parent alone. Read-outs that look alike come from different tables or passages of the source. Bounds are passed on as bounds.

By EC50 is commonly meant the midpoint of the concentration-response curve.

As to `CCCCCCCCCCCCCCCCCCCCCCOP1(=O)COC(Cn2ccc(N)nc2=O)CO1` (mixture of isomers) [DC-cCDV, Docosyl Cyclic Cidofovir], the half-maximal effective concentration (EC50) in the data set with HCMV strain AD-169 (setting [2]) was 0.032 µM; in the data set with MCMV strain Smith (MEF cells, 7-day incubation), 2.8 ± 1.7 µM. The compound further gave a CC50 in data set [1] of more than 100 µM.

For `CCCCCCCCCCCCCCCCOP1(=O)COC(Cn2ccc(N)nc2=O)CO1` (mixture of isomers) [HD-cCDV, Hexadecyl Cyclic Cidofovir], the EC50 with HCMV strain AD-169 (setting [2]) was found to be 3.1 ± 2.35 µM; in the data set with MCMV strain Smith (MEF cells, 7-day incubation), 0.13 ± 0.01 µM. Further, the CC50 in data set [1] was determined as 83 ± 20 µM.

Regarding `Nc1ccn(C[C@@H](CO)OCP(=O)(O)O)c(=O)n1` [CDV, Cidofovir, reference compound], the EC50 in the data set with Cowpox Brighton (Cowpox virus, HFF) turned out to be 42 ± 5.4 µM; in the data set on HCMV strain AD-169 (Human betaherpesvirus 5, AD169, HFF, 192 h), 1.2 ± 0.43 µM; in the data set on MCMV strain Smith (MEF, 168 h), 0.04 ± 0.03 µM; in the data set on Vaccinia Copenhagen (Orthopoxvirus vaccinia, HFF) it was 31 ± 5.4 µM. In the data set “in vitro”, this compound returned a CC50 of more than 317 µM.

For `CCCCCCCCCCCCCCCCCCCCCCOP(=O)(O)COC(CO)Cn1ccc(N)nc1=O` (centres unmarked) [DC-CDV, Docosyl Cidofovir, Sodium Salt], the EC50 came out at 0.004 µM with HCMV strain AD-169 (setting [2]) and 0.85 ± 0.007 µM with MCMV strain Smith (MEF cells, 7-day incubation). Further, in data set [1], the CC50 was found to be 79.6 µM.

With `CCCCCCCCCCCCOP(=O)(O)CO[C@H](CO)Cn1ccc(N)nc1=O` [DD-CDV, Dodecyl Cidofovir, Sodium Salt], the EC50 is more than 20 µM with Cowpox Brighton; 0.31 ± 0.19 µM with HCMV strain AD-169 (setting [2]); more than 10 µM in the data set with MCMV strain Smith (MEF cells, 7-day incubation); more than 20 µM in the data set on Vaccinia Copenhagen. Also, in data set [1], the CC50 is more than 100 µM.

Take `CCCCCCCCCCCCCCCCCCCCOP(=O)(O)CO[C@H](CO)Cn1ccc(N)nc1=O` [EC-CDV, Eicosyl Cidofovir, Sodium Salt]: the EC50 with Cowpox Brighton turned out to be 1.5 ± 0.9 µM; in the data set on HCMV strain AD-169 (setting [2]), 0.0007 µM; in the data set on MCMV strain Smith (MEF cells, 7-day incubation) it was 0.005 µM; in the data set with Vaccinia Copenhagen, 1.6 ± 1.3 µM.

In the case of `CCCCCCCCCCCCCCCCCCCCOP1(=O)CO[C@@H](Cn2ccc(N)nc2=O)CO1` (some centres unmarked) [EC-cCDV, Eicosyl Cyclic Cidofovir], the EC50 with HCMV strain AD-169 (setting [2]) is 0.011 µM; in the data set on MCMV strain Smith (MEF cells, 7-day incubation), 0.23 ± 0.01 µM. Also, the CC50 in data set [1] was 86.1 µM.

For the compound `CCCCCCCCCCCCCCCCOP(=O)(O)COC(CO)Cn1ccc(N)nc1=O` (centres unmarked) [HD-CDV, Hexadecyl Cidofovir, Sodium Salt], the EC50 with Cowpox Brighton worked out at 6 ± 2 µM; in the data set with HCMV strain AD-169 (setting [2]), 0.005 µM; in the data set on MCMV strain Smith (MEF cells, 7-day incubation), 0.02 µM; with Vaccinia Copenhagen it was 3.1 ± 0.1 µM. For the same compound, the CC50 in data set [1] is more than 157 µM.

As to `CCCCCCCCOP(=O)(O)CO[C@H](CO)Cn1ccc(N)nc1=O` [O-CDV, Octyl Cidofovir, Sodium Salt], the EC50 is more than 20 µM with Cowpox Brighton; 5.25 ± 5.7 µM in the data set with HCMV strain AD-169 (setting [2]); more than 10 µM with MCMV strain Smith (MEF cells, 7-day incubation); more than 20 µM in the data set on Vaccinia Copenhagen. Besides, the CC50 in data set [1] was more than 100 µM.

`CCCCCCCCCCCCCCCCCCCCCCCCOP(=O)(O)CO[C@H](CO)Cn1ccc(N)nc1=O` [TC-CDV, Tetracosyl Cidofovir, Sodium Salt]: the EC50 in the data set on Cowpox Brighton was more than 20 µM; with HCMV strain AD-169 (setting [2]) it was 0.006 µM; in the data set with MCMV strain Smith (MEF cells, 7-day incubation), 7.45 ± 0.64 µM; in the data set with Vaccinia Copenhagen, more than 17 µM. Also, the CC50 in data set [1] is more than 100 µM.

For `CCCCCCCCCCCCCCCCCCCCCCCCOP1(=O)CO[C@@H](Cn2ccc(N)nc2=O)CO1` (some centres unmarked) [TC-cCDV, Tetracosyl Cyclic Cidofovir], the EC50 came out at 0.32 µM with HCMV strain AD-169 (setting [2]) and 2.3 ± 1.3 µM with MCMV strain Smith (MEF cells, 7-day incubation). For the same compound, the CC50 in data set [1] was more than 100 µM.

Regarding `Nc1ccn(C[C@H]2COP(=O)(O)CO2)c(=O)n1` [cCDV, Cyclic Cidofovir, reference compound], the EC50 in the data set on HCMV strain AD-169 (Human betaherpesvirus 5, AD169, 192 h, HFF cells, 8-day incubation, value without SD = single determination) was 3.1 ± 1.8 µM; in the data set with MCMV strain Smith (168 h, MEF cells, 7-day incubation), 0.23 ± 0.07 µM. In addition, in “in vitro”, the CC50 is more than 331 µM.
